Measurements published in the NIST ThermoML archive (doi:10.1021/je400055v).

Assay: xn = mol fraction of the nth substance listed
Conditions: Liquid, Vibrating tube method

CCCCCCCCCCC [undecane] + CCCCCCC
Conditions | mass density [kg/m3]
313.12 K, 2001 kPa, x2 = 0.5063 | 703.7
313.12 K, 3000 kPa, x2 = 0.5063 | 704.6
313.12 K, 4000 kPa, x2 = 0.5063 | 705.6
313.12 K, 5000 kPa, x2 = 0.5063 | 706.5
313.12 K, 6000 kPa, x2 = 0.5063 | 707.4
313.12 K, 7000 kPa, x2 = 0.5063 | 708.2
313.12 K, 8001 kPa, x2 = 0.5063 | 709.1
313.12 K, 9000 kPa, x2 = 0.5063 | 709.9
313.12 K, 10000 kPa, x2 = 0.5063 | 710.8
313.12 K, 11000 kPa, x2 = 0.5063 | 711.6
313.12 K, 12000 kPa, x2 = 0.5063 | 712.4
313.12 K, 13000 kPa, x2 = 0.5063 | 713.2
313.12 K, 14000 kPa, x2 = 0.5063 | 714
313.12 K, 15000 kPa, x2 = 0.5063 | 714.8
313.12 K, 16000 kPa, x2 = 0.5063 | 715.6
313.12 K, 17001 kPa, x2 = 0.5063 | 716.3
313.12 K, 18000 kPa, x2 = 0.5063 | 717.1
313.12 K, 19000 kPa, x2 = 0.5063 | 717.8
313.12 K, 20000 kPa, x2 = 0.5063 | 718.5
313.12 K, 21001 kPa, x2 = 0.5063 | 719.2
313.12 K, 22050 kPa, x2 = 0.5063 | 720
313.12 K, 23000 kPa, x2 = 0.5063 | 720.6
313.12 K, 24000 kPa, x2 = 0.5063 | 721.3
313.12 K, 25000 kPa, x2 = 0.5063 | 722
313.14 K, 1001 kPa, x2 = 0.9511 | 671.7
313.14 K, 2000 kPa, x2 = 0.9511 | 672.8
313.14 K, 3000 kPa, x2 = 0.9511 | 673.9
313.14 K, 4000 kPa, x2 = 0.9511 | 674.9
313.14 K, 5000 kPa, x2 = 0.9511 | 676
313.14 K, 6000 kPa, x2 = 0.9511 | 677
313.14 K, 7000 kPa, x2 = 0.9511 | 678
313.14 K, 8000 kPa, x2 = 0.9511 | 679
313.14 K, 9000 kPa, x2 = 0.9511 | 680
313.14 K, 10000 kPa, x2 = 0.9511 | 680.9
313.14 K, 11000 kPa, x2 = 0.9511 | 681.8
313.14 K, 12000 kPa, x2 = 0.9511 | 682.7
313.14 K, 13000 kPa, x2 = 0.9511 | 683.6
313.14 K, 14001 kPa, x2 = 0.9511 | 684.5
313.14 K, 15001 kPa, x2 = 0.9511 | 685.4
313.14 K, 16000 kPa, x2 = 0.9511 | 686.3
313.14 K, 17001 kPa, x2 = 0.9511 | 687.1
313.14 K, 18001 kPa, x2 = 0.9511 | 687.9
313.14 K, 19000 kPa, x2 = 0.9511 | 688.7
313.14 K, 20000 kPa, x2 = 0.9511 | 689.5
313.14 K, 21001 kPa, x2 = 0.9511 | 690.3
313.14 K, 22000 kPa, x2 = 0.9511 | 691.1
313.14 K, 23001 kPa, x2 = 0.9511 | 691.9
313.14 K, 24000 kPa, x2 = 0.9511 | 692.6
313.14 K, 25000 kPa, x2 = 0.9511 | 693.3
313.15 K, 1000 kPa, x2 = 0.7482 | 687.4
313.15 K, 1001 kPa, x2 = 0.05 | 724.3
313.15 K, 2000 kPa, x2 = 0.7482 | 688.4
313.15 K, 2001 kPa, x2 = 0.05 | 725.1
313.15 K, 3000 kPa, x2 = 0.05 | 726
313.15 K, 3000 kPa, x2 = 0.7482 | 689.4
313.15 K, 4000 kPa, x2 = 0.05 | 726.8
313.15 K, 4000 kPa, x2 = 0.7482 | 690.4
313.15 K, 5000 kPa, x2 = 0.05 | 727.6
313.15 K, 5000 kPa, x2 = 0.7482 | 691.3
313.15 K, 6000 kPa, x2 = 0.05 | 728.4
313.15 K, 6000 kPa, x2 = 0.7482 | 692.3
313.15 K, 7000 kPa, x2 = 0.05 | 729.2
313.15 K, 7000 kPa, x2 = 0.7482 | 693.2
313.15 K, 8000 kPa, x2 = 0.7482 | 694.1
313.15 K, 8001 kPa, x2 = 0.05 | 730
313.15 K, 9000 kPa, x2 = 0.05 | 730.8
313.15 K, 9000 kPa, x2 = 0.7482 | 695
313.15 K, 10000 kPa, x2 = 0.05 | 731.6
313.15 K, 10000 kPa, x2 = 0.7482 | 695.9
313.15 K, 11000 kPa, x2 = 0.05 | 732.3
313.15 K, 11000 kPa, x2 = 0.7482 | 696.8
313.15 K, 12000 kPa, x2 = 0.05 | 733.1
313.15 K, 12000 kPa, x2 = 0.7482 | 697.6
313.15 K, 13000 kPa, x2 = 0.05 | 733.8
313.15 K, 13000 kPa, x2 = 0.7482 | 698.5
313.15 K, 14000 kPa, x2 = 0.05 | 734.5
313.15 K, 14000 kPa, x2 = 0.7482 | 699.3
313.15 K, 15000 kPa, x2 = 0.05 | 735.2
313.15 K, 15000 kPa, x2 = 0.7482 | 700.1
313.15 K, 16000 kPa, x2 = 0.05 | 735.9
313.15 K, 16000 kPa, x2 = 0.7482 | 700.9
313.15 K, 17000 kPa, x2 = 0.05 | 736.6
313.15 K, 17000 kPa, x2 = 0.7482 | 701.7
313.15 K, 18000 kPa, x2 = 0.05 | 737.3
313.15 K, 18000 kPa, x2 = 0.7482 | 702.5
313.15 K, 19000 kPa, x2 = 0.05 | 738
313.15 K, 19000 kPa, x2 = 0.7482 | 703.3
313.15 K, 20000 kPa, x2 = 0.05 | 738.7
313.15 K, 20000 kPa, x2 = 0.7482 | 704
313.15 K, 21000 kPa, x2 = 0.05 | 739.3
313.15 K, 21000 kPa, x2 = 0.7482 | 704.8
313.15 K, 22000 kPa, x2 = 0.7482 | 705.5
313.15 K, 22001 kPa, x2 = 0.05 | 740
